# Results: publication PMC9332470, “Production and Selection of Antibody–Antigen Pairs for the Development of Immunoenzyme Assay and Lateral Flow Immunoassay Methods for Carbofuran and Its Analogues” (Biosensors, 2022)
# What was measured:
# Assay type in all cases: binding, BALB/c mice
# mAb 13C8 [1] = test: colloidal gold-based LFIA with mAb 13C8
# Protocol: Ten milliliters of colloidal gold solution was adjusted to pH 8.0 with K2CO3 (0.1 M) at room temperature, and then 60 μg of the antibody was added. After mixing for 30 min at room temperature, 200 μL of 20% (w/v) BSA was added to block the free colloidal gold for 20 min at room temperature. Then, the mixture was centrifuged at 15,777× g for 30 min at 4 °C. Finally, the precipitate was resuspended in 2000 μL of PBS (0.005 M at pH 8.2, containing 10% BSA, 2% glucose, 0.5% alanine, 5% PEG2000 and 0.1% NaN3, w/v) and stored at 4 °C.
# An immunochromatographic test strip consisted of a sample pad, a conjugate pad, a nitrocellulose (NC) membrane and an absorbent pad. The mAb–colloidal gold conjugates (700 μL) were sprayed onto the conjugate pad (6 mm × 300 mm) and then dried under vacuum for 20 h at room temperature. DDB-OVA (50 μg/mL) or MDA-OVA (30 μg/mL) and goat anti-mouse IgG antibodies were dispensed on the NC membrane at a rate of 1 μL/cm as the test line (T line) and control line (C line), respectively. The NC membrane was then dried at 37 °C for 3 h. The sample pads, conjugate pads, NC membranes and absorbent pads were attached to the PVC plastic support, and then the assembled plate was cut to obtain 4 mm test strips and placed in a rigid plastic cassette.
# We also dispensed DDB-OVA (50 μg/mL) and MDA-OVA (30 μg/mL) onto the NC membrane and labeled antibody 13C8 with colloidal gold to prepare colloidal gold LFIA test strips.
# mAb 12D6 = test: ELISA reactivity of hybridoma supernatant, cell line 12D6; conditions: cell line 12D6 supernatant, 50 ng/mL pesticide
# Protocol: The desired antibodies with the highest affinity were screened by icELISA with carbofuran as a competitive compound, and hybridoma cells were cloned by the limited dilution method. Then, the selected hybridoma cells were injected into mice for ascites production. Finally, the mAbs were purified by (NH4)2SO4 with saturation of 50% and further purified by an SPA column.
# (§1) Microplates were coated with coating antigens. Different concentrations of the standard (50 µL) and the mAb (50 µL) were added to each well, and the plates were incubated for 20 min at 37 °C. The plates were washed with PBS (0.01 M, containing 0.05% (v/v) Triton X-100), 100 μL of goat anti-mouse IgG-HRP conjugate solution was added to each well, and the plates were incubated for 20 min at 37 °C. After the plates were washed with PBS (0.01 M, containing 0.05% Triton X-100, v/v), 100 µL of TMB single-component substrate solution was added to each well, followed by incubation at 37 °C for 10 min. Finally, the reaction was terminated, and the absorbance at 450 nm was measured by a microplate reader.
# (§2) The inhibition ratio (I%) was calculated as (B0-B)/B0 × 100%. IC50 is the concentration of the carbofuran at an I% of 50%, and the limit of detection (LOD) was determined as the concentration showing 10% of inhibition.
# Then, the reactivity of the supernatant of the six cell lines to 50 ng/mL carbofuran, benfuracarb and carbosulfan was assessed by ELISA, and the results are shown in Table 1. […] Because 13C8 had the highest reactivity with carbofuran, benfuracarb and carbosulfan among the six cell lines, it was injected into mice for ascites production, and the mAbs were purified by a protein A column for further experiments.
# mAb 13C8 [2] = test: indirect competitive ELISA (icELISA) with mAb 13C8
# Protocol: as §1
# Taking the logarithm of the carbofuran concentration as the abscissa and (B/B0)% as the ordinate, the standard curves for ELISA and QD-LFIA were obtained based on the Morgan–Mercer–Flodin (MMF) model, which were fitted by CurveExpert 1.4.0 software (https://www.curveexpert.net, accessed on 15 July 2022). For the ELISA method, B and B0 are the absorbance of the sample well and blank well, respectively. For the QD-LFIA method, B and B0 are the T/C (fluorescence intensity of the test line/fluorescence intensity of the control line) of the sample and blank control, respectively.
# as §2
# The cross-reactivities (CRs) of benfuracarb, carbosulfan, 3-hydroxy-carbofuran, metolcarb, carbaryl, isoprocarb and aldicarb with carbofuran were assessed by ELISA and QD-LFIA. CR was calculated as CR (%) = [IC50 (carbofuran)/IC50 (analogues)] × 100%.
# The microplate was coated with the coating antigens DDB-BSA (1 µg/mL), DDB-OVA (0.5 µg/mL), MDA-BSA (0.2 µg/mL) and MDA-OVA (0.1 µg/mL), and the concentration of mAb 13C8 was 0.03 µg/mL. Carbofuran standards (0, 0.05, 0.15, 0.45, 1.35 and 4.05 ng/mL) were detected to obtain a standard curve, and the IC50 was calculated. […] In the icELISA used in this study, free antigen (carbofuran) in solution competed with the coating antigen on the microplate for antibody 13C8; therefore, the IC50 value was negatively correlated with the antibody-binding ability of free antigen competing with coating antigens.
# The ELISA method was developed with the antibody 13C8–antigen MDA-BSA pair. Under the optimized coating antigen concentration (0.1 μg/mL), HRP-conjugated goat anti-mouse IgG concentration (1 μg/mL), antibody concentration (0.03 μg/mL) and working buffer parameters (5 mM PBS at pH 7.4), a standard curve was obtained with the concentration of carbofuran on the abscissa and the inhibition ratio (B/B0) on the ordinate.
smiles,measurement,setting,value
CNC(=O)Oc1cccc2c1OC(C)(C)C2 [carbofuran],cut-off (colloidal gold LFIA),mAb 13C8 [1]; heterologous coating antigen MDA-OVA (30 μg/mL),3 ng/mL
same,change of T line versus 0 ng/mL,"mAb 13C8 [1]; heterologous coating antigen MDA-OVA, 1 ng/mL carbofuran",significantly lighter
same,change of T line versus 0 ng/mL,"mAb 13C8 [1]; homologous coating antigen DDB-OVA, 1000 ng/mL carbofuran",almost no change
same,Reactivity of mAb (I%),mAb 12D6,84%
same,CR (%) (ELISA),"mAb 13C8 [2]; CR = IC50(carbofuran)/IC50(analogue) x 100%, optimized ELISA with mAb 13C8",100.0%
same,IC50 (ELISA),"mAb 13C8 [2]; antibody 13C8, coating antigen DDB-BSA (1 µg/mL)",0.19 ± 0.01 ng/mL
same,IC50 (ELISA),"mAb 13C8 [2]; antibody 13C8, coating antigen DDB-OVA (0.5 µg/mL)",0.22 ± 0.02 ng/mL
same,IC50 (ELISA),"mAb 13C8 [2]; antibody 13C8, coating antigen MDA-BSA (0.2 µg/mL)",0.20 ± 0.02 ng/mL
same,IC50 (ELISA),"mAb 13C8 [2]; antibody 13C8, coating antigen MDA-OVA (0.1 µg/mL)",0.17 ± 0.01 ng/mL
same,detection limit (ELISA),"mAb 13C8 [2]; concentration showing 10% of inhibition, optimized ELISA",0.02 ng/mL
same,working range (ELISA),mAb 13C8 [2]; optimized ELISA,0.02 to 2.09 ng/mL
same,IC50 (ELISA),"mAb 13C8 [2]; optimized ELISA, mAb 13C8 0.03 μg/mL, coating antigen 0.1 μg/mL, given as MDA-BSA and MDA-OVA, unit from text",0.18 ± 0.03 ng/mL
